Article PMC10073126, “Levosimendan inhibits disulfide tau oligomerization and ameliorates tau pathology in Tau^P301L-BiFC mice” (Experimental & Molecular Medicine, 2023)

Tests used:
tau = test: Tau immunoblot of primary hippocampal neuron lysates; type: cell-based, rat; settings: primary neurons, tauK18^P301L; for Level of disulfide-linked tau oligomers compared to basal: nonreducing SDS-PAGE, control 1.8 ± 0.3-fold
Protocol: (§1) Band intensity was quantified using ImageJ software (NIH). All data were normalized to β-actin.
(§2) Primary hippocampal neurons were isolated from Day 18 embryonic Sprague‒Dawley rat brains as described previously. The neurons were seeded at a density of 3.5 × 10^5 cells per well on a poly-D-lysine-coated 6-well plate and maintained in neurobasal medium at 37 °C in a humidified atmosphere of 5% CO2. The neurobasal medium contained 2% B27 supplement, 0.5 mM GlutaMAX, 100 units/mL penicillin, and 100 μg/mL streptomycin. Every 3 days, 50% of the medium was replaced with fresh neurobasal medium. At DIV10, neurons were incubated with MB, LMTM (3 µM), or levosimendan (10 µM) in the presence of tauK18^P301L (10 µg/mL) for 48 h.

[1] = tested on: primary hippocampal neurons; test: NeuO staining, number of neurons and neurite lengths; type: cell-based; settings: for Number of NeuO-stained live neurons / Neurite length: tauK18^P301L, 48 h; for Number of NeuO-stained live neurons: basal 1925 ± 66, control 943 ± 30; for Neurite length: control 142.8 ± 17.8 μm
Protocol: as §2
At DIV10, neurons grown on a 96-well plate were treated with MB, LMTM (3 µM), or levosimendan (10 µM) followed by tauK18^P301L activation. After 48 h, the neurons were stained with NueO (50 nM), a neuron-selective probe. NeuO fluorescence (λex = 460–490 nm and λem = 518–580 nm) images were acquired by using Operetta® (PerkinElmer). The number of neurons and total lengths of neurites were quantified by Harmony 3.1 software (PerkinElmer). Error bars represent the standard deviations (S.D.) of four replicate experiments.

tauK18 [2] = target: T1, tauK18 (Homo sapiens, UniProt P10636); test: In vitro tau aggregation assay (thioflavin S); type: biochemical; settings: 5 days; for EC50: tauK18 with heparin and DTT, read-out: EC50, inhibition of tau aggregation (ThS)
T1 construct: under in vitro conditions using a purified tauK18 fragment; 6xHis; made in house; host or cells: E. coli BL21 (DE3)
T1 sequence (P10636 561-685 limits assumed): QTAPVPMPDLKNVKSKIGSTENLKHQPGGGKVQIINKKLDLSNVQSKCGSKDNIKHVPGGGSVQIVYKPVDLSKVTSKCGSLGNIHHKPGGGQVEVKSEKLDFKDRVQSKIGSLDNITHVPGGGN
Protocol: (§3) To evaluate the inhibitory effect of drugs on tau aggregation, tauK18 protein (0.5 mg/mL) was incubated with each drug at various concentrations in the presence of DTT (100 μM) and heparin (0.1 mg/mL) at 37 °C for 5 days with vigorous shaking (220 rpm). For the tau disaggregation assay, the preformed aggregation mixture of tauK18 was incubated with each drug at 37 °C for 4 days with vigorous shaking (220 rpm). On the final day of incubation, the level of β-sheet aggregates was evaluated by thioflavin S (ThS) assay. For the ThS assay, 5 μL of each mixture was transferred to a black 384-well plate with 45 μL of PBS containing 10 μM ThS. ThS fluorescence (λex = 430 nm, and λem = 500 nm) was measured by using a Flexstation2 spectrophotometer (Molecular Devices).

tauK18 [3] = target: T1, tauK18; test: Transmission electron microscopy of tau filaments and oligomers; type: biochemical; settings: tauK18 preaggregates; DMSO control 13.7 ± 5.2 nm
Protocol: Samples were placed onto carbon-coated copper electron microscopy grids and then negatively stained with 2% (w/v) aqueous uranyl acetate for 1 min. To image the tau filaments (Fig. 3d), the grids were observed using a JEM-1011 transmission electron microscope (JEOL) at an acceleration voltage of 80 kV. To image the tau filaments and oligomers (Figs. 3f and 4e), the grids were observed using a Tecni G2 F20 transmission electron microscope (FEI) at an acceleration voltage of 120 kV. Eight to twelve random images from each experimental condition were captured by the operator as a blind observer.

Tau^P301L-BiFC mice [4] = test: AT8 immunofluorescence of brain tissue slices; type: in vivo, mouse; settings: 5 mg/kg i.p., 4 months
Protocol: (§4) For drug administration, LMTM and levosimendan were dissolved in PBS containing 40% polyethylene glycol (PEG; Sigma). Nine-month-old Tau^P301L-BiFC mice were intraperitoneally administered each drug for 4 months, three times a week, at a dosage of 5 mg/kg (n = 11 per group). Vehicle-treated Tau^P301L-BiFC mice and age-matched wild-type mice were used as control groups. Behavioral assessments were conducted as described below for one month from the end of drug administration. All mice were sacrificed at the age of 14 months for pathological analysis.
For immunofluorescence image analysis, brain tissue slices (n = 6–8 per group) were stained with AT8 (pS202/T205) antibody (1:200, Invitrogen). The primary antibody was detected using Alexa Flour 633-conjugated anti-mouse antibody (1:500, Abcam). Fluorescence images (λex = 620–640 nm and λem = 650–700 nm) were acquired using Axio Scan. Z1 (ZEISS).

tauK18 [5] = target: T1, tauK18; test: In vitro tau disaggregation assay (thioflavin S); type: biochemical; settings: preformed tauK18 aggregates, 4 days; read-out: EC50, tau disaggregation (ThS)
Protocol: as §3

tauK18 [6] = target: T1, tauK18; test: TauK18 oligomerization assay in vitro (SDS-PAGE); type: biochemical; settings: 5 h, nonreducing SDS-PAGE, DMSO control 50 ± 1.1%
Protocol: To induce tau oligomerization, tauK18 (0.5 mg/mL dissolved in PBS, pH 7.4) was incubated with each drug in the presence of DTT (100 μM) and heparin (0.1 mg/mL) at RT for 5 h with vigorous shaking. Then, tau oligomers were separated on 4–20% SDS‒PAGE gels under reducing and nonreducing conditions and visualized by Coomassie blue staining.

Tau^P301L-BiFC mice [7] = test: Tau immunoblot of RIPA-soluble and RIPA-insoluble brain lysates; type: in vivo, mouse; settings: 5 mg/kg i.p., 4 months; for Level of disulfide-linked tau oligomers in the brain (nonreducing SDS-PAGE): RIPA-soluble brain lysates
Protocol: as §1, §4
Brains were weighed and suspended in RIPA lysis buffer (Sigma) containing protease and phosphatase inhibitor cocktails. Then, tissues were mechanically disrupted using a cordless mortar and pestle (Sigma) and incubated at 4 °C for 2 h with shaking. The homogenates were centrifuged at 20,000 × g at 4 °C for 20 min. The supernatants were collected as RIPA-soluble fractions and stored at −80 °C. To prepare RIPA-insoluble fractions, the remaining pellets were washed once with RIPA lysis buffer containing 1 M sucrose, resuspended in 2% SDS solution (1 mL per gram of tissue) and incubated at RT for 1 h. The mixtures were centrifuged at 20,000 × g for 1 min at RT. The supernatant was collected as RIPA-insoluble fractions and preserved at −80 °C.

Compound	EC50 (tauK18 [2])	AT8 immunoreactivity in the cortex compared to vehicle-treated group (Tau^P301L-BiFC mice [4])	AT8 immunoreactivity in the hippocampus compared to vehicle-treated group (Tau^P301L-BiFC mice [4])	EC50 (tauK18 [5])	Level of disulfide-linked tau oligomers (of total tau) (tauK18 [6]; 100 μM)	Level of disulfide-linked tau oligomers in the brain (nonreducing SDS-PAGE) (Tau^P301L-BiFC mice [7])	Fold change, RIPA-insoluble tau (IB: Tau5) (Tau^P301L-BiFC mice [7]; vehicle 1.00)	Fold change, RIPA-soluble tau phosphorylation at S199 (Tau^P301L-BiFC mice [7]; vehicle 1.00)	Fold change, RIPA-soluble tau phosphorylation at S396 (Tau^P301L-BiFC mice [7]; vehicle 1.00)	other results
C[C@@H]1CC(=O)NN=C1c1ccc(NN=C(C#N)C#N)cc1 [Levosimendan]	2600 ± 100 nM	0.4 ± 0.1 fold	0.4 ± 0.2 fold	3700 ± 200 nM	12.3 ± 15.0%	significantly decreased the high-molecular-weight oligomers	0.5 ± 0.2 fold	0.5 ± 0.0 fold	0.5 ± 0.1 fold	Level of disulfide-linked tau oligomers compared to basal (tau; 10 μM): 0.5 ± 0.1 fold; Total tau level compared to basal (tau; 10 μM, 48 h, control 1.5 ± 0.1-fold): 1.0 ± 0.1 fold; Tau phosphorylation at S199 compared to basal (tau; 10 μM, 48 h, control 1.7 ± 0.1-fold): 0.9 ± 0.1 fold; Tau phosphorylation at S396 compared to basal (tau; 10 μM, 48 h, control 2.0 ± 0.3-fold): 0.9 ± 0.1 fold; Number of NeuO-stained live neurons ([1]; 10 μM): 1650 ± 114 neurons; Neurite length ([1]; 10 μM): 346.8 ± 20.7 μm; Inhibition of tau aggregation in vitro (ThS response) (tauK18 [2]; heparin-induced): strong anti-tau aggregation activity; Diameter (width) of tau particles (TEM) (tauK18 [3]): 8.8 ± 2.0 nm; Level of disulfide-linked tau oligomers (of total tau) (tauK18 [6]; 10 μM): 15.0 ± 6.0%; Level of disulfide-linked tau oligomers (of total tau) (tauK18 [6]; 30 μM): 15.7 ± 7.8%; Fold change, RIPA-soluble total tau (IB: Tau5) (Tau^P301L-BiFC mice [7]; vehicle 1.00): decreased slightly
CN(C)c1ccc2c(c1)Sc1cc(N(C)C)ccc1N2.CS(=O)(=O)O.CS(=O)(=O)O [LMTM, leucomethylene blue mesylate]	1900 ± 200 nM	0.6 ± 0.2 fold	0.5 ± 0.2 fold	3400 ± 200 nM	79.2 ± 0.8%	did not increase or decrease	0.7 ± 0.1 fold	0.6 ± 0.1 fold	0.8 ± 0.2 fold	Level of disulfide-linked tau oligomers compared to basal (tau; 3 μM): 2.4 ± 0.3 fold; Number of NeuO-stained live neurons ([1]; 3 μM): 1182 ± 76 neurons; Neurite length ([1]; 3 μM): 151.1 ± 24.4 μm; Neuronal cell death in primary hippocampal neurons ([1]; higher concentrations over 10 μM (data not shown)): severe neuronal cell death
